Data taken from ChEMBL document CHEMBL5126591, “Early potential evaluation of lead compounds from a DNA-encoded library by the determination of their thermodynamics through a chromatographic method based on immobilized β2-adrenoceptor” (Bioorg Med Chem, 2022).
Active and inactive are the calls of the source. No cut-off for these calls is given here.

How the values were obtained:
[1] = target: T1, Beta-2 adrenergic receptor (Homo sapiens, UniProt P07550); assay: Binding affinity to immobilized Halo tag-fused beta2 adrenoceptor (unknown origin) expressed in Escherichia coli BL21 (DE3) assessed as reduction in retention time by chromatographic analysis
Target sequence in this assay (P07550 whole entry, looked up, the tested form may be a part): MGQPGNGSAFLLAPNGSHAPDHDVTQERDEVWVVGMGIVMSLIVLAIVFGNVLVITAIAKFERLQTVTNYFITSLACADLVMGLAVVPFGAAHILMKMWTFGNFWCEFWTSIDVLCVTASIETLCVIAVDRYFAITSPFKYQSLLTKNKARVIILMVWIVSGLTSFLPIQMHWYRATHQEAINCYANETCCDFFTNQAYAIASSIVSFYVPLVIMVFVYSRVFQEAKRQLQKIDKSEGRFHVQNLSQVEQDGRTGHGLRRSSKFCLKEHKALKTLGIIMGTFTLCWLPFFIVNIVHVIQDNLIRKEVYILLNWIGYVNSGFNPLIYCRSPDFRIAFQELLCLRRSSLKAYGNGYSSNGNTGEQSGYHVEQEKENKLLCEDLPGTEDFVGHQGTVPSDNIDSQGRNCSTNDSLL

[2] = target: T1, Beta-2 adrenergic receptor
Target sequence in this assay (P07550 whole entry, looked up, the tested form may be a part): as above
Description: Binding affinity to immobilized Halo tag-fused beta2 adrenoceptor (unknown origin) expressed in Escherichia coli BL21 (DE3) assessed as retention time by chromatographic analysis

[3] = target: T1, Beta-2 adrenergic receptor; assay: Displacement of [3H]-CGP12,177 from immobilized Halo tag-fused beta2 adrenoceptor (unknown origin) expressed in Escherichia coli BL21 (DE3)
Target sequence in this assay (P07550 whole entry, the tested form may be a part): as the sequence (P07550 whole entry, looked up, the tested form may be a part) above

CC1(C)[C@@H](O)CC[C@]2(C)[C@H]3C(=O)C=C4[C@@H]5C[C@@](C)(C(=O)NCCc6ccc(O)cc6)CC[C@]5(C)CC[C@@]4(C)[C@]3(C)CC[C@@H]12
Activity [1]: Active

CNC(C)Cc1ccccc1OC (centres undefined) [METHOXYPHENAMINE]
Retention time [2]: 4.6 min | Ka [3]: 2.08 10^5/M

O=NO
Retention time [2]: 2.4 min
